Values after ≈ are worked out from the molar mass of the structure shown. Values joined by “and” are separate entries in the source; they are usually repeats but may differ in a detail not shown here. Equal values may be shown once. Where a name gives a salt, the structure may show the parent alone. Read-outs that look alike come from different tables or passages of the source.

For series [1] the following is noted: cited from earlier work.
Series [2] is described as follows: pKa of counterions and active agents. The format is physicochemical. To be noted: active vs its counterion; read-out: difference between the pKa of the active and the counterion.
The conditions of series [3]: pH 6.5; cited from earlier work.
Where [4] appears, read: counterion, first value of the cell, some values marked estimated.

`CC(C)CCC[C@@H](C)[C@H]1CC[C@H]2[C@@H]3CC=C4CC(OS(=O)(=O)O)CC[C@]4(C)[C@H]3CC[C@]12C` (stereo partly drawn) [Cholesteryl sulfate, cholesteryl sulfate]: the pKa in series [1] (setting [4]) was <1 estimated. `CC(C)CCC[C@@H](C)[C@H]1CC[C@H]2[C@@H]3CC=C4C[C@@H](OP(=O)(O)O)CC[C@]4(C)[C@H]3CC[C@]12C` [Cholesteryl phosphate, cholesteryl phosphate]: the pKa in series [1] (setting [4]) is given as <2 estimated. As for `CC(C)CCOC(=O)CC(C(=O)OCCC(C)C)S(=O)(=O)O` (stereo not drawn) [1,4-diisopentyloxy-1,4-dioxobutane-2-sulfonate], the pKa in series [1] (setting [4]) is reported as <1 estimated. Turning to `COc1ccc(-c2ccc3cc(C(=O)O)ccc3c2)cc1C12CC3CC(CC(C3)C1)C2` [Adapalene, reference compound], the values for the pKa in series [2] and in series [1] (active agent) were 5.2 and 4.2, respectively. In the case of `C#Cc1cccc(Nc2ncnc3cc(OCCOC)c(OCCOC)cc23)c1` [Erlotinib, N-(3-ethynylphenyl)-6,7-bis(2-methoxyethoxy) quinazolin-4-amine, reference compound], the “solubility in phosphate buffered saline” value in series [3] was 1 µg/mL (≈ 2.54 µM). Also, the pKa in series [2] was ≥ 4.4; in series [1] (active agent), 5.42 and 5.4. Consider `c1ccc(CNCCNCc2ccccc2)cc1` [N,N′-dibenzylethylene diamine], for which the pKa in series [1] (setting [4]) is on record as 6.2. With `Cc1c(C)c2c(c(C)c1OP(=O)(O)O)CCC(C)(CCCC(C)CCCC(C)CCCC(C)C)O2` (stereo not drawn) [Tocopherol phosphate, tocopherol phosphate], the pKa in series [1] (setting [4]) is <2 estimated. `c1ccc(CCNCc2ccccc2)cc1` [N-(benzyl)-2-phenylethan-1-amine]: the pKa in series [1] (setting [4]) is 9.4. Consider `O=S(=O)(O)c1ccc2ccccc2c1` [2-Naphthalenesulfonate, 2-naphthalene sulfonate], for which the pKa in series [1] (setting [4]) is given as 0.17. Regarding `O=C(CC(C(=O)OC1CCCCC1)S(=O)(=O)O)OC1CCCCC1` (stereo not drawn) [1,4-dicyclohexyloxy-1,4-dioxobutane-2-sulfonate], the pKa in series [1] (setting [4]) is <1 estimated. Consider `CC(C)(C)c1ccc2c(S(=O)(=O)O)c(C(C)(C)C)ccc2c1` [2,6-di-tert-butylnaphthalene-1-sulfonate], for which the pKa in series [1] (setting [4]) was −2.48. As to `CC(C)(C)c1ccc2c(S(=O)(=O)O)c(C(C)(C)C)ccc2c1S(=O)(=O)O` [2,6-di-tert-butylnaphthalene-1,5-disulfonate], the pKa in series [1] (setting [4]) was −2.32; in series [1] (counterion, second value printed in the same cell) it was −3.05. In the case of `Cc1c(C)c2c(c(C)c1OS(=O)(=O)O)CCC(C)(CCCC(C)CCCC(C)CCCC(C)C)O2` (stereo not drawn) [Tocopherol sulfate, tocopherol sulfate], the pKa in series [1] (setting [4]) is <1 estimated.

As for `CC(C)c1ccc2c(c1)CC[C@H]1[C@](C)(CNCCNC[C@]3(C)CCC[C@]4(C)c5ccc(C(C)C)cc5CC[C@@H]34)CCC[C@]21C` [N^1,N^2-bis(((1 R,4aS,10aR)-7-isopropyl-1,4a-dimethyl-1,2,3,4,4a,9,10,10a-octahydrophenanthren-1-yl)methyl)ethane-1,2-diamine], the pKa in series [1] (setting [4]) is reported as 6.6.

The values are drawn from patent publication US20170209375A1, “NANOPARTICLE FORMULATIONS OF LOW-WATER SOLUBILITY ACTIVES” (Bend Research, Inc., priority 2014, published 2017).
